Where a name gives a salt, the structure may show the parent alone.
Columns and labels:
dopamine D-1 receptor [1] = molecular target: dopamine D-1 receptor (Rattus norvegicus, UniProt P18901); test: biochemical; settings: D-1 Ki, rat caudate, [125I]SCH-23982
Description: The compounds compete with the radiolabeled ligand for occupancy of the receptors and the molar potency of each compound was quantified.
The Ki values are inversely proportional to the affinity of the compound for the receptor.

dopamine D-2 receptor = dopamine D-2 receptor (Rattus norvegicus, UniProt P61169); test: biochemical; type: binding; settings: rat caudate, [125I]-p-aminophenylethyl spiroperidol; read-out: D-2 Ki
Description: Homogenized rat caudate was the source of the D-2 receptors. […] The molar affinity of the compound for the receptor binding site was calculated by the same method used for the D-1 receptor assay, assuming a competitive interaction between the compound and the radiolabeled ligand.

dopamine D-1 receptor [2] = settings: for Intrinsic Activity (adenylate cyclase assay): dopamine = 100, goldfish retina or rat striatum; for EC50: read-out: EC50 (agonist activity in adenylate cyclase assay), tissue from goldfish retina or rat striatum
Description: In order to determine agonist activity, cell-free tissue homogenates are incubated in an ionic buffer solution containing ATP and the compound being evaluated. The tissue was obtained from either goldfish retina or rat striatum.

Sequence of dopamine D-2 receptor (P61169 whole entry): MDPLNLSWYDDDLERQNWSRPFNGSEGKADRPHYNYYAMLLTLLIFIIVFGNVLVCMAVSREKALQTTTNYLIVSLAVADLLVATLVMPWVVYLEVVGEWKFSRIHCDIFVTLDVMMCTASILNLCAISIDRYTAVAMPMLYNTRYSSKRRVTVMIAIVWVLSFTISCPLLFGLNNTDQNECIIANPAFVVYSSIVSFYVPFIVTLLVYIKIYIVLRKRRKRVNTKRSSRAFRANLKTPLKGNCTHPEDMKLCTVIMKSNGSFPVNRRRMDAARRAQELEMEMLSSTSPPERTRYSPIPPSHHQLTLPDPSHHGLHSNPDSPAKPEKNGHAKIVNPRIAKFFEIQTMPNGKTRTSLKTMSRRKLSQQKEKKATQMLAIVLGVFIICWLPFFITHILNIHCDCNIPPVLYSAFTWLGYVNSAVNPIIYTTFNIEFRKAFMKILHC
Sequence of dopamine D-1 receptor (Rattus norvegicus, UniProt P18901) (P18901 whole entry): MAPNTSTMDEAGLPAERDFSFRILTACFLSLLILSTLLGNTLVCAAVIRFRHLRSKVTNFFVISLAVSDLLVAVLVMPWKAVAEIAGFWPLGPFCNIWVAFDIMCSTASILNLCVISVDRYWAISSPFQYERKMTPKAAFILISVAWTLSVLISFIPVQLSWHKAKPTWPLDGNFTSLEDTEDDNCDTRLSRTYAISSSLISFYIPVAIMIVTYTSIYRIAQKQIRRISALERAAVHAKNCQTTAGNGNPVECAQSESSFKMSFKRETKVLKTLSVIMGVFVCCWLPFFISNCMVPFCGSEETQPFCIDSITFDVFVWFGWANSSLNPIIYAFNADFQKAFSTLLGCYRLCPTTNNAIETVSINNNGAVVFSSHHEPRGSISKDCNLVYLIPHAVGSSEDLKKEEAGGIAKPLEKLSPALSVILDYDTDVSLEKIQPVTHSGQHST

Row | SMILES | Ki (dopamine D-1 receptor [1]) [nM] | Ki (dopamine D-2 receptor) [nM] | Intrinsic Activity (adenylate cyclase assay) (dopamine D-1 receptor [2]) | EC50 (dopamine D-1 receptor [2]) [nM]
1 | NC[C@@H]1O[C@H](CN2Cc3ccccc3C2=O)Cc2c1ccc(O)c2O (relative stereo) [Example 87] | 11000 | 700 | 54 | 50
2 | NCC1OC2(CCOCC2)Cc2c1ccc(O)c2O (centres unmarked) [Example 95] | 520 | > 10000 | 104 | 100
3 | C=CCNC[C@@H]1O[C@H](C(C)(C)C)Cc2c1ccc(O)c2O [Example 129] | 2100 | 3100 | 97 | 1000
4 | NC[C@H]1O[C@@H](CNC(=O)c2ccc(Br)cc2)Cc2c1ccc(O)c2O (relative stereo) [Example 167] | 310 | 2.1 | 125 | 120
5 | CCCC(=O)Oc1ccc2c(c1OC(=O)CCC)CC(c1ccccc1)C=C2CN (centres unmarked) [Example 17] | 800 | > 10000 | 42 | 2800
6 | NCC1CC2(CCCCCCCC2)Cc2c1ccc(O)c2O (centres unmarked) [Example 236] | 4400 | > 10000 | 36 | 700
7 | NCC1CC2(CCCCCC2)Cc2c1ccc(O)c2O (centres unmarked) [Example 193] | 650 | 3200 | 63 | 680
8 | Oc1ccc2c(c1O)CC1(CCCCCC1)C1=C2CNCC1 [Example 206] | 26 | 1600 | 79 | 68
9 | NC[C@H]1O[C@@H](c2ccc(C(F)(F)F)cc2)Cc2c1ccc(O)c2O (relative stereo) [Example 98] | 220 | 1900 | 108 | 18
10 | C=CCNC[C@H]1O[C@@H](C23CC4CC(CC(C4)C2)C3)Cc2c1ccc(O)c2O (relative stereo) [Example 117] | 1200 | 1000 | 60 | 80
11 | CC(C)(C)c1ccc(OC[C@H]2Cc3c(ccc(O)c3O)[C@@H](CN)O2)cc1 (relative stereo) [Example 57] | 1100 | 730 | 56 | 30
12 | C=CCNC[C@H]1O[C@@H](CCCC)Cc2c1ccc(O)c2O (relative stereo) [Example 125] | 2700 | > 10000 | 63 | 1000
13 | NCC1CC2(CCCCCCC2)Cc2c1ccc(O)c2O (centres unmarked) [Example 197] | 880 | > 5000 | 56 | 180
14 | CNC[C@H]1O[C@@H](c2ccc(F)cc2)Cc2c1ccc(O)c2O (relative stereo) [Example 136] | 100 | 2500 | 133 | 5
15 | CC(C)C(=O)Oc1ccc2c(c1OC(=O)C(C)C)CC(c1ccccc1)C=C2CN (centres unmarked) [Example 18] | 1300 | > 10000 | 46 | 1500
16 | CCC(C)C(C)[C@@H]1Cc2c(ccc(O)c2O)[C@H](CN)O1 (some centres unmarked) [Example 72] | 15 | 8200 | 80 | 170
17 | Oc1ccc2c(c1O)C[C@H](C1CCCCC1)O[C@@H]2CN1CCCC1 (relative stereo) [Example 115] | 12000 | 3000 | 68 | 2200
18 | CC(C)(C)C1C=C(CN)c2ccc(O)c(O)c2C1 (centres unmarked) [Example 190] | 330 | 6300 | 92 | 110

Row | SMILES | Ki (dopamine D-1 receptor [1]) [nM] | Ki (dopamine D-2 receptor) [nM] | Intrinsic Activity (adenylate cyclase assay) (dopamine D-1 receptor [2]) | EC50 (dopamine D-1 receptor [2]) [nM]
19 | NCC1CC2(CCCC2)Cc2c1ccc(O)c2O (centres unmarked) [Example 196] | 6000 | > 10000 | 80 | 1100
20 | NC[C@@H]1O[C@H](CCc2ccccc2)Cc2c1ccc(O)c2O (relative stereo) [Example 61] | 290 | 1300 | 76 | 6
21 | NC[C@@H]1O[C@H](c2ccc(I)cc2)Cc2c1ccc(O)c2O (relative stereo) [Example 80] | 14 | 1100 | 161 | 8
22 | NC[C@H]1O[C@@H](CNC(=O)c2cccnc2)Cc2c1ccc(O)c2O (relative stereo) [Example 170] | 570 | 140 | 151 | 130
23 | CCCC[C@H]1Cc2c(ccc(O)c2O)[C@@H](CNC)O1 (relative stereo) [Example 135] | 180 | 1600 | 136 | 7
24 | C=CCC[C@H]1Cc2c(ccc(O)c2O)[C@@H](CNC)O1 (relative stereo) [Example 132] | 86 | 640 | 106 | 870
25 | NC[C@H]1O[C@@H](CCO)Cc2c1ccc(O)c2O (relative stereo) [Example 160] | 1300 | 1700 | 136 | 140
26 | CNC[C@H]1O[C@@H](CC2CCCCC2)Cc2c1ccc(O)c2O (relative stereo) [Example 140] | 60 | 1500 | 113 | 8.4
27 | NC[C@@H]1O[C@H](c2ccc(Br)cc2)Cc2c1ccc(O)c2O (relative stereo) [Example 69] | 87 | 2700 | 108 | 72
28 | NC[C@H]1O[C@@H](c2cccc(C(F)(F)F)c2)Cc2c1ccc(O)c2O (relative stereo) [Example 99] | 22 | 8900 | 134 | 5
29 | CNC[C@@H]1O[C@H](C23CC4CC(CC(C4)C2)C3)Cc2c1ccc(O)c2O [Example 134] | 35 | 1000 | 81 | 4
30 | CNCC1=CC(c2ccccc2)Cc2c1ccc(O)c2O (centres unmarked) [Example 149, 5,6-Dihydroxy-1-(N-methyl)aminomethyl-3-phenyl-3,4,-dihydronaphthalene] | 460 | 19000 | 78 | 36
31 | COc1ccc(OC[C@H]2Cc3c(ccc(O)c3O)[C@@H](CN)O2)cc1 (relative stereo) [Example 53] | 250 | 650 | 67 | 23
32 | CC(=O)NC[C@H]1Cc2c(ccc(O)c2O)[C@@H](CN)O1 (relative stereo) [Example 161] | 1300 | 170 | 58 | 450
33 | Oc1ccc2c(c1O)C[C@H](C1CCCCC1)O[C@@H]2CNC1CC1 (relative stereo) [Example 114] | 420 | 900 | 60 | 60
34 | NC[C@H]1O[C@@H](CO)Cc2c1ccc(O)c2O (relative stereo) [Example 155, [1,3-cis]1-Aminomethyl-3,4-dihydro-5,6-dihydroxy-3-hydroxymethyl-1H-2-benzopyran Hydrochloride] | 2600 | 8200 | 95 | 150
35 | CCCC[C@@H]1Cc2c(ccc(O)c2O)[C@H](CN)O1 (relative stereo) [Example 79] | 730 | 920 | 151 | 7

From patent US5621133A (priority 1995, dated 1997)
